Read-outs that look alike come from different tables or passages of the source.
Key:
[1] = system: Rat; details: cited from earlier work
[2] = system: Actinomyces viscosus T14V; type: cell-based; details: for % Red. / Bact. Count (Log 10): Table VIII
Description: The SIKT test is a basic microbiological test which incorporates a fixed contact time. […] The system is then neutralized to inhibit further antimicrobial activity. The surviving bacteria are enumerated using plate count methodology. The reduction in counts compared to a water control is the basis for expressing activity. A three log reduction is usually considered significant.

[3] = oral, values reported in the literature
[4] = Table VI, rinses, with and without Carbopol polymers

| Compound | LD 50 (Oral, Rat) [1, 3] | % Red. ([2]; concentration 0.01) | Bact. Count (Log 10) ([2]; concentration 0.01) | % Red. ([2]; concentration 0.02) | Bact. Count (Log 10) ([2]; concentration 0.02) | % Red. ([2]; concentration 0.04) | Bact. Count (Log 10) ([2]; concentration 0.04) | % Red. ([2]; concentration 0.06) | Bact. Count (Log 10) ([2]; concentration 0.06) | % Red. ([2]; concentration 0.07) | Bact. Count (Log 10) ([2]; concentration 0.07) | % Red. ([2]; concentration 0.08) | Bact. Count (Log 10) ([2]; concentration 0.08) | further results |
| --- | --- | --- | --- | --- | --- | --- | --- | --- | --- | --- | --- | --- | --- | --- |
| CC(C)=CCC[C@](C)(O)C1CC=C(C)CC1 (stereo partly drawn) [Bisabolol] | 5000 mg/kg |  |  |  |  |  |  |  |  |  |  |  |  |  |
| [H]/N=C(\N/C(=N/[H])NCCCCCCNC(=N)NC(=N)Nc1ccc(Cl)cc1)Nc1ccc(Cl)cc1 [Chlorhexidine, reference compound] |  |  |  |  |  |  |  |  |  |  |  |  |  | % Reduction [2, 4]: > 99.00%; Bacterial Count (log 10) [2, 4]: 4.52 log 10 |
| CC(C)=CCCC(C)=CCCC(C)=CCO [Farnesol] |  | > 99.99% | < 2.00 Log 10 | > 99.99% | < 2.00 Log 10 | > 99.99% | < 2.00 Log 10 | > 99.99% | < 2.00 Log 10 | > 99.99% | < 2.00 Log 10 | > 99.99% | < 2.00 Log 10 | % Red. ([2]; concentration 0.005): 99.9%; Bact. Count (Log 10) ([2]; concentration 0.005): 3.66 Log 10; % Red. ([2]; concentration 0.0075): > 99.99%; Bact. Count (Log 10) ([2]; concentration 0.0075): 2.50 Log 10 |
| COC(=O)c1ccccc1O [Methyl salicylate, reference compound] |  |  |  |  |  |  |  |  |  |  |  |  |  | LD 50 (Oral, Rat) ([1]; in vivo, po): 887 mg/kg |
| C=CC(C)(O)CCC=C(C)CCC=C(C)C (stereo not drawn) [Nerolidol] | > 5000 mg/kg |  |  |  |  |  |  |  |  |  |  |  |  |  |
| Cc1ccc(C(C)C)c(O)c1 [Thymol, reference compound] |  | 0% | 6.67 Log 10 | 0% | 6.71 Log 10 | 0% | 6.23 Log 10 | 99.99% | 3.93 Log 10 | > 99.99% | < 2.00 Log 10 | > 99.99% | < 2.00 Log 10 |  |
